Reference: US9732075B2, “Benzimidazole-proline derivatives” (IDORSIA PHARMACEUTICALS LTD, priority 2012, dated 2017)

Legend:
human orexin-1 receptor = human orexin-1 receptor (Homo sapiens (Human), UniProt O43613); test: In vitro assay: intracellular calcium measurements (FLIPR), antagonistic activity; format: cell-based; conditions: CHO cells expressing human orexin-1 receptor, orexin-A agonist, geometric mean, read-out: IC50 Ox1
Procedure, shortened: (§1)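 Dye-loaded CHO cells expressing either human orexin receptor are exposed to test antagonist for 120 min, then stimulated with orexin-A at 3 nM.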

human orexin-2 receptor = human orexin-2 receptor (Homo sapiens (Human), UniProt O43614); test: as above; format: cell-based; conditions: CHO cells expressing human orexin-2 receptor, orexin-A agonist, geometric mean, read-out: IC50 Ox2
human orexin-2 receptor, sequence (O43614 whole entry): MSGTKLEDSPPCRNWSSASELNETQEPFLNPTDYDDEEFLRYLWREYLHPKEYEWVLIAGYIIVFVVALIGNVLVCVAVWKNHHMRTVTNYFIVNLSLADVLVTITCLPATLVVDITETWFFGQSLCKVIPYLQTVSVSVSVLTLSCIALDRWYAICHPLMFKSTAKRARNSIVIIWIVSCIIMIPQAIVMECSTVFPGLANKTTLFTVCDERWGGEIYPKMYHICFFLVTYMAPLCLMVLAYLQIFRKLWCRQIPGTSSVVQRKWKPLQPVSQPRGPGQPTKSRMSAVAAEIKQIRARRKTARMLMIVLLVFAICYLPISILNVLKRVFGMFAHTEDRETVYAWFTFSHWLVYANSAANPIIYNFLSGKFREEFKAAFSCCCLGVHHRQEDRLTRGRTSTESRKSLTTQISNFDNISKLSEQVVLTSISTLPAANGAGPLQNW
Procedure, shortened: as §1

human orexin-1 receptor, sequence (O43613 whole entry): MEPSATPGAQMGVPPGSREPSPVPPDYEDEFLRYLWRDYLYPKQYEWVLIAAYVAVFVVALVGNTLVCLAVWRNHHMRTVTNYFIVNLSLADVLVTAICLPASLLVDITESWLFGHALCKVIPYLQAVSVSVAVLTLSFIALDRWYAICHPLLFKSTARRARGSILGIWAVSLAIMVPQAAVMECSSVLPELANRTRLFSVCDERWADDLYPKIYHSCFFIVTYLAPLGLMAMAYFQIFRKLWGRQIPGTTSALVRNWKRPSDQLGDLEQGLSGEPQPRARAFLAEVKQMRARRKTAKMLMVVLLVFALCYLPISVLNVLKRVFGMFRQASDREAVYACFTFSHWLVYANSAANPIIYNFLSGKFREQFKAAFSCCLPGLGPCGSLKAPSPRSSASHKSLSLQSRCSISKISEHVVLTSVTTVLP

| IC50 (human orexin-1 receptor) [µM] | IC50 (human orexin-2 receptor) [µM] | Compound |
| --- | --- | --- |
| 0.038 | 0.532 | C[C@@]1(c2nc3cc(Cl)c(C(F)(F)F)cc3[nH]2)CCCN1C(=O)c1nc(-c2ccccc2F)sc1-c1ccc(F)cc1 [Ex. 5.289] |
| 0.015 | 0.001 | C=C1C[C@@H](c2nc3cccc(C)c3[nH]2)N(C(=O)c2nc(C)sc2-c2ccc(F)c(Br)c2)C1 [Ex. 6.110] |
| 0.013 | 0.0008 | C=C1C[C@@H](c2nc3cccc(C)c3[nH]2)N(C(=O)c2nc(C)sc2-c2cccc(Br)c2)C1 [Ex. 6.104] |
| 2.51 | 0.118 | C=C1C[C@@H](c2nc3cc(OC)ccc3[nH]2)N(C(=O)c2nccnc2-c2ccc(C)cc2)C1 [Ex. 6.4] |
| 0.056 | 0.401 | Cc1ccc(C(=O)N2CCC[C@@]2(C)c2nc3cc(OC(F)(F)F)ccc3[nH]2)c(-c2ccccc2)c1 [Ex. 5.242] |
| 0.005 | 0.028 | Cc1ccc(C(=O)N2CCC[C@@]2(C)c2nc3cc(C(F)(F)F)c(Cl)cc3[nH]2)c(-n2nccn2)c1 [Ex. 5.140] |
| 0.217 | 1.29 | Cc1ccc(-c2ccc(F)cc2C)c(C(=O)N2CCC[C@@]2(C)c2nc3cc(C)c(C)cc3[nH]2)c1 [Ex. 5.91] |
| 0.013 | 0.014 | COc1cccc(-c2ccc(C)cc2C(=O)N2CCC[C@@]2(C)c2nc3c(C)c(C)ccc3[nH]2)c1 [Ex. 5.110] |
| 0.01 | 0.018 | COc1ccc(-c2cccc(F)c2)c(C(=O)N2CCC[C@@]2(C)c2nc3ccc(Cl)c(C)c3[nH]2)c1F [Ex. 5.300] |
| 0.232 | 0.473 | COc1cc2nc([C@]3(C)CCCN3C(=O)c3cncnc3-c3ccccc3)[nH]c2cc1OC [Ex. 5.90] |
| 0.008 | 0.02 | Cc1ccc(-n2nccn2)c(C(=O)N2CCC[C@@]2(C)c2nc3cc(C(F)(F)F)c(Cl)cc3[nH]2)c1F [Ex. 5.134] |
| 0.004 | 0.011 | C=C1CC(c2nc3c(C)c(Cl)ccc3[nH]2)N(C(=O)c2cc(C)sc2-c2ccc(C)c(C)c2)C1 (stereo not shown) [Ex. 6.74] |
| 0.014 | 0.003 | C=C1C[C@@H](c2nc3ccc(Cl)c(C)c3[nH]2)N(C(=O)c2nc(C)sc2-c2ccc(Br)cc2)C1 [Ex. 6.116] |
| 0.035 | 0.159 | COc1ccccc1-c1ccc(C)cc1C(=O)N1CCC[C@@]1(C)c1nc2cc(C(F)(F)F)c(Cl)cc2[nH]1 [Ex. 5.148] |
| 0.525 | 0.879 | Cc1ccc(-c2ccc(OC(F)(F)F)cc2)c(C(=O)N2CCC[C@@]2(C)c2nc3cc(C(F)(F)F)c(Cl)cc3[nH]2)c1 [Ex. 5.158] |
| 0.019 | 0.117 | Cc1nc(C(=O)N2CCC[C@@]2(C)c2nc3c(F)c(F)ccc3[nH]2)c(-c2ccccc2)s1 [Ex. 5.206] |
| 0.013 | 0.004 | C=C1C[C@@H](c2nc3ccc(Cl)c(C)c3[nH]2)N(C(=O)c2c(-n3nccn3)ccc(C)c2F)C1 [Ex. 6.132] |
| 0.077 | 0.019 | C=C1C[C@@H](c2nc3cc(Cl)c(C(F)(F)F)cc3[nH]2)N(C(=O)c2c(F)cccc2-n2nccn2)C1 [Ex. 6.175] |
| 0.008 | 0.016 | C=C1CN(C(=O)c2nc(C)sc2-c2cccc(Cl)c2)C(C)(c2nc3cc(OC)ccc3[nH]2)C1 (stereo not shown) [Ex. 6.153] |
| 0.031 | 0.072 | COc1cc2nc([C@]3(C)CCCN3C(=O)c3nc(C)sc3-c3ccc(F)cc3)[nH]c2cc1OC [Ex. 5.78] |
| 0.023 | 0.017 | CCn1c([C@]2(C)CCCN2C(=O)c2cc(C)ccc2-c2cccc(C)c2)nc2cc(C)c(C)cc21 [Ex. 7.27] |
| 0.019 | 0.027 | COc1cccc(-c2ccc(C)cc2C(=O)N2CCC[C@@]2(C)c2nc3cc(C)c(C)cc3n2CCF)c1 [Ex. 7.51] |
| 0.006 | 0.031 | Cc1ccc(-n2nccn2)c(C(=O)N2CCC[C@@]2(C)c2nc3cc(C(C)(C)C)ccc3[nH]2)c1 [Ex. 5.13] |
| 0.005 | 0.022 | Cc1ccc(-n2nccn2)c(C(=O)N2CCC[C@@]2(C)c2nc3cc(Cl)c(C)cc3[nH]2)c1 [Ex. 5.15] |
| 0.064 | 0.153 | COc1ccc(-c2sc(C)nc2C(=O)N2CCC[C@@]2(C)c2nc3cc(OC)c(OC)cc3[nH]2)cn1 [Ex. 5.77] |
| 0.006 | 0.011 | Cc1ccc(-c2cccc(F)c2)c(C(=O)N2CCC[C@@]2(C)c2nc3cc(C)c(C)cc3[nH]2)c1 [Ex. 5.97] |
| 0.007 | 0.021 | Cc1c(Cl)ccc2[nH]c([C@]3(C)CCCN3C(=O)c3cc(F)ccc3-c3ncccn3)nc12 [Ex. 5.224] |
| 0.003 | 0.012 | Cc1ccc(-c2ccccc2)c(C(=O)N2CCC[C@@]2(C)c2nc3c(C)c(Cl)ccc3[nH]2)c1 [Ex. 5.223] |

More lines, now with the values behind:

| Compound | IC50 (human orexin-1 receptor) [µM] | IC50 (human orexin-2 receptor) [µM] |
| --- | --- | --- |
| CSc1ccc2nc([C@@H]3CCCN3C(=O)c3nc(C)sc3-c3cc(F)cc(F)c3)[nH]c2c1 [Ex. 1.44] | 0.404 | 0.12 |
| CSc1ccc2nc([C@@H]3CCCN3C(=O)c3cnc(C)nc3-c3ccc(Br)c(Cl)c3)[nH]c2c1 [Ex. 1.58] | 0.032 | 0.024 |
| Cc1c(Cl)ccc2[nH]c([C@@H]3[C@@H](C)CCN3C(=O)c3c(F)cccc3-c3ncccn3)nc12 [Ex. 4.177] | 0.009 | 0.219 |
| CSc1ccc2[nH]c([C@@H]3CCCN3C(=O)c3ccccc3-n3cccn3)nc2c1 [Ex. 1.176] | 2.19 | 0.099 |
| Cc1cc2nc([C@@H]3[C@@H](C)CCN3C(=O)c3cc(Cl)ccc3-n3nccn3)[nH]c2cc1C [Ex. 4.81] | 0.004 | 0.079 |
| Cc1nc(C(=O)N2CCCC2c2nc3c(C)cccc3[nH]2)c(-c2ccccc2)s1 (stereo not shown) [Ex. 1.123] | 0.147 | 0.07 |
| COc1ccc2[nH]c([C@]3(C)CCCN3C(=O)c3cc(C)ccc3-n3nccn3)nc2c1 [Ex. 5.32] | 0.09 | 0.046 |
| CO[C@@H]1C[C@@H](c2nc3ccc(Cl)c(C)c3[nH]2)N(C(=O)c2cc(C(F)(F)F)ccc2-n2nccn2)C1 [Ex. 3.17] | 0.368 | 0.051 |
| Cc1ccc(-n2nccn2)c(C(=O)N2CC[C@H](C)[C@H]2c2nc3c(Cl)cccc3[nH]2)c1 [Ex. 4.36] | 0.07 | 2.74 |
| Cc1ccc(-n2nccn2)c(C(=O)N2CC[C@H](C)[C@H]2c2nc3c(C)cc(C)cc3[nH]2)c1 [Ex. 4.33] | 0.009 | 0.294 |
| COc1cc(C(=O)N2CCC[C@H]2c2nc3ccc(SC)cc3[nH]2)c(-n2nccn2)cc1OC [Ex. 1.155] | 0.036 | 0.016 |
| Cc1ccc(-n2nccn2)c(C(=O)N2CC[C@H](C)[C@H]2c2nc3cc(C)c(C)cc3[nH]2)c1 [Ex. 4.30] | 0.012 | 0.155 |
| CO[C@H]1CN(C(=O)c2nc(C)sc2-c2cccc(Cl)c2)C(C)(c2nc3c(C)c(Cl)ccc3[nH]2)C1 (stereo partly shown) [Ex. 3.27] | 0.005 | 0.016 |
| Cc1ccc(C(=O)N2CC[C@H](C)[C@H]2c2nc3c(C)c(Cl)ccc3[nH]2)c(-c2ccccc2)c1 [Ex. 4.168] | 0.01 | 0.486 |
| Cc1nc(C(=O)N2CCCC2c2nc3c(C)cccc3[nH]2)c(-c2cccc(Cl)c2)s1 (stereo not shown) [Ex. 1.96] | 0.054 | 0.043 |
| Cc1ccc(-c2sccc2C(=O)N2CC[C@H](C)[C@H]2c2nc3c(C(F)(F)F)cccc3[nH]2)cc1C [Ex. 4.160] | 0.002 | 0.027 |

| Compound | IC50 (human orexin-1 receptor) [µM] | IC50 (human orexin-2 receptor) [µM] |
| --- | --- | --- |
| Cc1nc(C(=O)N2CCCC2c2nc3cc(C(F)(F)F)ccc3[nH]2)c(-c2cccc(Cl)c2)s1 (stereo not shown) [Ex. 1.94] | 0.042 | 0.414 |
| COc1cc2nc([C@@H]3[C@@H](C)CCN3C(=O)c3ccccc3-n3nccn3)[nH]c2cc1OC [Ex. 4.49] | 0.221 | 0.533 |
| Cc1nc(C(=O)N2CC[C@H](C)[C@H]2c2nc3c(C(F)(F)F)cccc3[nH]2)c(-c2ccc(F)cc2)s1 [Ex. 4.149] | 0.014 | 0.752 |
| Cc1nc(C(=O)N2CCCC2c2nc3cc(Cl)c(Cl)cc3[nH]2)c(-c2cccc(Cl)c2)s1 (stereo not shown) [Ex. 1.92] | 0.023 | 0.069 |
| Cc1ccc(C(=O)N2CC[C@H](C)[C@H]2c2nc3cc(Cl)c(C)cc3[nH]2)c(-c2ccccn2)c1 [Ex. 4.109] | 0.003 | 0.108 |
| Cc1ccc(-n2nccn2)c(C(=O)N2CC[C@H](C)[C@H]2c2nc3cc(Cl)c(C)cc3[nH]2)c1 [Ex. 4.32] | 0.007 | 0.156 |
| Cc1cc2[nH]c([C@@H]3[C@@H](C)CCN3C(=O)c3c(-c4ncccn4)ccc(C)c3F)nc2cc1Cl [Ex. 4.132] | 0.087 | 1.32 |
| Cc1nc(C(=O)N2CCCC2c2nc3cc(Cl)ccc3[nH]2)c(-c2cccc(Cl)c2)s1 (stereo not shown) [Ex. 1.97] | 0.095 | 0.314 |
| CSc1cccc2nc([C@@H]3CCCN3C(=O)c3nc(C)sc3-c3ccc(C)cc3)[nH]c12 [Ex. 1.66] | 0.02 | 0.047 |
| Cc1cc(C)c2nc(C3CCCN3C(=O)c3nc(C)sc3-c3cccc(Cl)c3)[nH]c2c1 (racemic) [Ex. 1.102] | 0.017 | 0.017 |
| Cc1cccc(-c2sc(C)nc2C(=O)N2CC[C@H](C)[C@H]2c2nc3c(Cl)cccc3[nH]2)c1 [Ex. 4.122] | 0.003 | 0.61 |
| COc1ccc2nc([C@@H]3CCCN3C(=O)c3nc(C)sc3-c3cccc(F)c3)[nH]c2c1 [Ex. 1.21] | 1.18 | 0.149 |
| Cc1nc(C(=O)N2CC[C@H](C)[C@H]2c2nc3c(C)c(Cl)ccc3[nH]2)c(-c2ccc(F)cc2)s1 [Ex. 4.70] | 0.0006 | 0.404 |
| CO[C@H]1CN(C(=O)c2cc(C)ccc2-n2nccn2)C(C)(c2nc3c(C)cccc3[nH]2)C1 (stereo partly shown) [Ex. 3.26] | 0.05 | 0.066 |
| COc1ccccc1-c1sc(C)nc1C(=O)N1CC[C@H](C)[C@H]1c1nc2c(C(F)(F)F)cccc2[nH]1 [Ex. 4.156] | 0.014 | 0.489 |
